# Literature values in patent publication US12234263B2, “Influenza vaccines” (InvVax, Inc., priority 2016, dated 2025).
# Test system: CD8 T-cell
# Settings: BALB/C; worldwideweb.fludb.org
sequence,measurement,value
TYQRTRALV [SEQ ID NO: 37],experimentally validated CD8 T-cell epitope,experimentally validated BALB/C influenza A virus CD8 T-cell epitope
